Results on three compounds are retold here after patent publication US20230201158A1, “PHARMACEUTICAL COMPOSITION CAPABLE OF INHIBITING REPLICATION OF CORONAVIRUS” (MAHIDOL UNIVERSITY, priority 2020, published 2023).

In series [1] the test system is SARS-CoV-2. Put plainly: Anti-SARS-CoV-2 effect at the pre-entry phase, high-content imaging. The note with it: pre-incubated with virus 1 h, adsorption 2 h on Vero E6, washed, 48 h. Type of series: cell-based.
For series [2], the system named is SARS-CoV-2. Put plainly: Antiviral activity test, immunofluorescence high-content imaging, post-infection treatment. Type of series: cell-based.
In series [3] the test system is SARS-CoV-2. Type of series: cell-based.
Series [4] concerns SARS-CoV-2. Nature of the series: Plaque assay of viral output, pre-entry phase. It is filed as cell-based. The note with it: 50 μM, FIG. 9.
For series [5], the system named is Vero E6 cells. The note with it: read-out: CC50, pre-entry phase, pre-entry condition.
For series [6], the system named is SARS-CoV-2. Nature of the series: Plaque assay of viral output, post-infection treatment. Type of series: cell-based. The conditions noted are these: FIG. 6. The procedure:
Furthermore, the viral output of SARS-CoV-2 in the present disclosure was reported as the infectious titers that were determined by plaque assay. In brief, Vero cell monolayer was seeded into 6-well plate 24 hours before the infection. The cells were inoculated with a serial dilution of the virus and incubated for viral adsorption for 1 hour at 37° C. Then, the cells were overlaid with 3 mL/well of overlay medium containing MEM supplemented with 5% FBS and 1% agarose. To allow plaque to develop, the culture was incubated at 37° C. in 5% CO2 for 3 days. After that, plaque phenotypes were visualized by staining with 0.33% Neutral Red solution (Sigma, USA) for 5 hrs. Plaque numbers were counted and calculated as plaque-forming unit (PFU) per milliliter (mL).

Series [7] concerns Vero E6 cells. Put plainly: Cytotoxicity test by MTT assay. The conditions noted are these: 48 h, read-out: 50% cytotoxic concentration (CC50). Type of series: cell-based, African green monkey (Cercopithecus aethiops). The procedure:
(§1) According to the present disclosure, Vero E6 cells, African green monkey (Cercopithecus aethiops) kidney epithelial cells (ATCC #C1008), were used for the antiviral screening. The cells were grown in Dulbecco's Modified Eagle Medium (DMEM) (Gibco, USA) with 10% fetal bovine serum (FBS) (Gibco, USA). For Vero cells (African green monkey epithelial cells), these cells were cultured in Minimum Essential Medium (MEM) (Gibco, USA) supplemented with 10% FBS and L-glutamine (Gibco, USA). All cultures were grown at 37° C. in 5% CO2 atmosphere and used in the experiments described in the following examples.
(§2) For Cytotoxicity Test by using MTT assay, the Vero E6 cells were cultured in 96-well plates with 10,000 cells per well and kept in an incubator for 24 hours. Then, the cells were incubated with the two active compounds from the B. rotunda extract, Panduratin A and Pinostrobin, in the incubator for 48 hours. When the given time was completed, 100 uL of […] MTT solvent was added and cells were incubated in the incubator for another 3 hours. MTT solvent was removed and 100 uL DMSO was added. Light absorbance was measured at 570 nm by a microplate reader, and 50% cytotoxicity concentration (CC50) was calculated for each replicate.

Series [8] can be described thus: Cytotoxicity test by MTT assay. The conditions noted are these: African green monkey (Cercopithecus aethiops), Vero E6 cells (kidney epithelial cells, ATCC #C1008), read-out: 50% cytotoxic concentration (CC50). It is filed as cell-based, African green monkey (Cercopithecus aethiops). On the procedure:
as §1, §2
For orientation: Tetrazolium dyes change colour on reduction, which living cells bring about.

Like-named read-outs stand apart in the source and are kept apart here.

Turning to `COc1cc(O)c(C(=O)[C@@H]2[C@H](CC=C(C)C)C(C)=CC[C@H]2c2ccccc2)c(O)c1` [Panduratin A], the IC50 in the series on SARS-CoV-2 [1] stood at 5.3 µM; with SARS-CoV-2 [2] (Vero E6 cells infected 2 h, then treated 48 h (post-infection), read-out: 50% inhibition concentration (IC50)), 810 nM. In the series with SARS-CoV-2 [3] (72 h, 5 μM, vehicle 4.5 log PFU/mL), the “Virus titer (reduced in)” value was 3 log PFU/mL. Moreover, the “Reduction of virus titers (result in words)” value in the series with SARS-CoV-2 [3] (primary human alveolar cells, FIG. 10) was “reduced virus titers in a dose-dependent manner”. For the same compound, the “Suppression of the infectious virion production” value in the series on SARS-CoV-2 [4] is reported as “absolutely suppressed”. In addition, the figures for the CC50 in the series on Vero E6 cells [5] and in the series on Vero E6 cells [7] were 43.5 µM and 14.7 µM, respectively. For the same compound, the “Inhibition of coronavirus replication in plaque assay (result in words)” value in the series with SARS-CoV-2 [6] is given as “significantly lower than that of Hydroxychloroquine”.
Consider `COc1cc(O)c2c(c1)O[C@H](c1ccccc1)CC2=O` [Pinostrobin], for which, in the series with SARS-CoV-2 [2] (Severe acute respiratory syndrome coronavirus 2, Vero C1008, read-out: 50% inhibition concentration (IC50)), the IC50 came to 440 nM. Also, the “Virus titer (reduced in)” value with SARS-CoV-2 [3] (72 h, 25 μM, vehicle 4.5 log PFU/mL) turned out to be 3 log PFU/mL. The compound also yielded a Virus titer in the series with SARS-CoV-2 [3] (72 h, 50 μM, vehicle 4.5 log PFU/mL) of 2.0 log PFU/mL. Further, the CC50 at 48 h in series [8] is above 100 µM.
For the compound `CCN(CCO)CCCC(C)Nc1ccnc2cc(Cl)ccc12` (centres unmarked) [Hydroxychloroquine, reference compound], in the series with SARS-CoV-2 [2] (Severe acute respiratory syndrome coronavirus 2, Vero C1008, read-out: 50% inhibition concentration (IC50), given in ug/mL beside the uM value), the IC50 is 1.71 µg/mL. The CC50 at 48 h in series [8] is above 100 µM.
